This assay deals with T1, Carboxypeptidase B (Homo sapiens, UniProt P15086).
T1 sequence (P15086 whole entry): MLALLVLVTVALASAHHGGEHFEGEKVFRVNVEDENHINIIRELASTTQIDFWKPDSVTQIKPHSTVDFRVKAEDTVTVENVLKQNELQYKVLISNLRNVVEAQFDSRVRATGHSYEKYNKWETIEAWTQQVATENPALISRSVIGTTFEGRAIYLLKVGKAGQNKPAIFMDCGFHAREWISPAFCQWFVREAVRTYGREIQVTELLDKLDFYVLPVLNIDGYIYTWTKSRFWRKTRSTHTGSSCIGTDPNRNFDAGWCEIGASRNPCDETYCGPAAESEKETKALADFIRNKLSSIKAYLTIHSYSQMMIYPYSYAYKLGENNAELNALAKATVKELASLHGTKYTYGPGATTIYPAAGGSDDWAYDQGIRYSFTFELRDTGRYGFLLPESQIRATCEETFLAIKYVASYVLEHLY
The assay can be described thus: Inhibition of carboxypeptidase B.

One may read the IC50 as the concentration needed to halve the response being measured. Low values mean greater potency in that assay, high ones weaker potency in that assay.

With `N=C(N)NCC/C=C(/CC(=O)O)C(=O)O` [LYSIANADIOIC ACID], half-maximal inhibition (IC50) was put at 360 nM.
